Experiments:
[1] = system: Aspergillus brasiliensis; conditions: when used in cosmetics; Daily Chemical Industry 2015, 45:269; cited from earlier work
[2] = system: Pseudomonas aeruginosa; conditions: when used in cosmetics; Daily Chemical Industry 2015, 45:269; cited from earlier work
[3] = Solubility test d): 4-HAP + 3 wt. % 1,2-pentanediol (Hydrolite 5) + 5 wt. % glycerin in warm water; assay type: physicochemical; conditions: for dissolution result: heating up to 50° C. and cooling down while stirring; for crystals on storage: stored at 5° C. and room temperature, after 24 h
[4] = General properties: behaviour when put into water; assay type: physicochemical; conditions: solid put into water in a beaker
[5] = Solubility test e): 4-HAP + 5 wt. % 1,2-pentanediol (Hydrolite 5) in cold water; assay type: physicochemical; conditions: for dissolution result: after ca. 50 min
[6] = Solubility test c): 4-HAP + 3 wt. % 1,2-pentanediol (Hydrolite 5) + 5 wt. % glycerin in cold water; assay type: physicochemical
[7] = 0.5 wt. % 4-HAP + 3 wt. % 1,2-pentanediol + 5 wt. % glycerin
[8] = 1 wt. % 4-HAP + 3 wt. % 1,2-pentanediol + 5 wt. % glycerin
[9] = 0.5 wt. % 4-HAP + 5 wt. % 1,2-pentanediol
[10] = 1 wt. % 4-HAP + 5 wt. % 1,2-pentanediol

## CC(=O)c1ccc(O)cc1 [4-hydroxyacetophenone]
[1]
  ability to kill Aspergillus brasiliensis: great ability to kill
[2]
  ability to restrain Pseudomonas aeruginosa: certain ability to restrain

## CC(=O)c1ccc(O)cc1 [Example 3, 4-hydroxyacetophenone]
[3]; [7]
  dissolution result: solved completely
  crystals on storage: no crystals
[3]; [8]
  dissolution result: solved completely
  crystals on storage: no crystals
[4]
  behaviour when put into water: distributes on the surface and slowly falls to the ground of the beaker
[5]; [9]
  time until solved completely: ca. 50 min
[5]; 0.5 wt. % 4-HAP + 5 wt. % 1,2-pentanediol, after 24 h of storage
  crystallization/precipitation on storage: no crystallization/precipitation
[5]; [10]
  time until solved completely: ca. 50 min
[5]; 1 wt. % 4-HAP + 5 wt. % 1,2-pentanediol, stored at 5° C.
  storage time after which crystallization: 24 h
[6]; [7]
  storage time after which crystallization/precipitation: 48 h
  time until solved completely: ca. 50 min
[6]; [8]
  time until solved completely: ca. 50 min
[6]; 1 wt. % 4-HAP + 3 wt. % 1,2-pentanediol + 5 wt. % glycerin, after 24 h of storage
  crystallization/precipitation on storage: no crystallization/precipitation

## CC(=O)c1ccc(O)cc1 [Example 4, 4-hydroxyacetophenone]
[3]; [7]
  dissolution result: solved completely
  crystals on storage: no crystals
[3]; [8]
  dissolution result: solved completely
  crystals on storage: no crystals
[4]
  behaviour when put into water: agglomerates and sinks to the ground
[5]; [9]
  dissolution result: a few little lumps of solid left undissolved
[5]; [10]
  dissolution result: lumps of solid left undissolved
[6]; [7]
  storage time after which crystallization/precipitation: 48 h
  time until solved completely: ca. 50 min
[6]; 1 wt. % 4-HAP + 3 wt. % 1,2-pentanediol + 5 wt. % glycerin, after stirring for 60 min
  dissolution result: a few lumps of solid left undissolved

— patent US10981854B2 (SYMRISE AG, priority 2016, dated 2021)
